Results taken from patent publication US4443436A, “C-20-Modified macrolide derivatives of the macrolide antibiotics tylosin, desmycosin, macrocin, and lactenocin” (Eli Lilly and Company, priority 1982, dated 1984).
In brackets after ≈: the same amount, converted by molar mass. Read-outs that look alike come from different tables or passages of the source.

Tests used:
[1] = system: Streptococcus pyogenes C203; test: MIC, standard agar-dilution assay, Streptococcus pyogenes C203; type: cell-based
[2] = system: Streptococcus Group D X66; test: MIC, standard agar-dilution assay, Streptococcus Group D X66; type: cell-based
[3] = system: Streptococcus pneumoniae Park I; test: microbe, parasite or virus in culture; type: cell-based
Mycoplasma hyopneumoniae = test: MIC, broth-dilution microtiter test, Mycoplasma hyopneumoniae; type: cell-based
Excerpt: (§1) The MIC's in Table X were obtained using conventional broth-dilution microtiter tests.

Streptococcus Group 9960 = test: MIC, standard agar-dilution assay, Streptococcus Group 9960; type: cell-based; conditions: Streptococcus Group 9960, agar dilution
Mycoplasma gallisepticum = test: MIC, broth-dilution microtiter test, Mycoplasma gallisepticum; type: cell-based
Excerpt: as §1

[4] = system: Pasteurella multocida 60A; test: MIC, broth-dilution microtiter test, Pasteurella multocida 60A; type: cell-based
Excerpt: as §1

[5] = system: Pasteurella hemolytica 22C; test: MIC, broth-dilution microtiter test, Pasteurella hemolytica 22C; type: cell-based
Excerpt: as §1

[6] = system: Haemophilus influenzae R252; test: MIC, standard agar-dilution assay, Haemophilus influenzae R252; type: cell-based
Staphylococcus aureus = test: MIC, broth-dilution microtiter test, Staphylococcus aureus; type: cell-based
Excerpt: as §1

[7] = system: Pasteurella multocida 17E; test: MIC, broth-dilution microtiter test, Pasteurella multocida 17E; type: cell-based; conditions: Pasteurella multocida 17E, bovine isolate, broth-dilution microtiter
Excerpt: as §1

Mycoplasma synoviae = test: MIC, broth-dilution microtiter test, Mycoplasma synoviae; type: cell-based
Excerpt: as §1

[8] = system: Staphylococcus aureus X400; test: MIC, standard agar-dilution assay, Staphylococcus aureus X400; type: cell-based
[9] = system: Staphylococcus epidermidis EPI2; test: MIC, standard agar-dilution assay, Staphylococcus epidermidis EPI2; type: cell-based
[10] = system: Staphylococcus aureus X1.1; test: MIC, standard agar-dilution assay, Staphylococcus aureus X1.1; type: cell-based
[11] = system: Staphylococcus aureus S13E; test: MIC, standard agar-dilution assay, Staphylococcus aureus S13E; type: cell-based
[12] = system: Staphylococcus aureus V41; test: MIC, standard agar-dilution assay, Staphylococcus aureus V41; type: cell-based
[13] = system: Staphylococcus epidermidis EPI1; test: MIC, standard agar-dilution assay, Staphylococcus epidermidis EPI1; type: cell-based
Streptococcus bovis 80 = test: MIC, broth-dilution microtiter test, Streptococcus bovis 80; type: cell-based; conditions: Streptococcus bovis 80, broth-dilution microtiter
Excerpt: as §1

Mycoplasma hyorhinis = test: MIC, broth-dilution microtiter test, Mycoplasma hyorhinis; type: cell-based
Excerpt: as §1

[14] = system: Haemophilus influenzae Holt; test: MIC, standard agar-dilution assay, Haemophilus influenzae Holt; type: cell-based
[15] = system: Streptococcus pyogenes C203; test: In vivo protection of mice experimentally infected with S. pyogenes C203; conditions: Streptococcus pyogenes, mice, doses given 1 and 4 hours post-infection
Procedure: The C-20 modified derivatives of this invention have shown in vivo antimicrobial activity against experimentally-induced infections in laboratory animals. When two doses of test compound were administered to mice experimentally infected with S. pyogenes C203, the activity observed was measured as an ED50 value [effective dose in mg/kg to protect 50% of the test animals: see Warren Wick, et al., J. Bacteriol. 81, 233-235 (1961)].

[16] = Streptococcus Group D X66, agar dilution, read-out: MIC
[17] = Mesomycoplasma hyopneumoniae, Mycoplasma hyopneumoniae, broth-dilution microtiter, read-out: MIC
[18] = Mycoplasmoides gallisepticum, Mycoplasma gallisepticum, broth-dilution microtiter, read-out: MIC
[19] = Pasteurella multocida 60A, avian isolate, broth-dilution microtiter, read-out: MIC
[20] = Pasteurella hemolytica 22C, broth-dilution microtiter, read-out: MIC
[21] = Haemophilus influenzae R252, ampicillin-resistant strain, read-out: MIC
[22] = Mycoplasmopsis synoviae, Mycoplasma synoviae, broth-dilution microtiter, read-out: MIC
[23] = Staphylococcus aureus X400, methicillin-resistant strain, agar dilution, read-out: MIC
[24] = Staphylococcus epidermidis, EPI2
[25] = Staphylococcus epidermidis, EPI1
[26] = Streptococcus equinus, read-out: MIC

CCC1OC(=O)CC(O)C(C)C(OC2OC(C)C(OC3CC(C)(O)C(O)C(C)O3)C(N(C)C)C2O)C(CCOc2ccccc2)CC(C)C(=O)C=CC(C)=CC1COC1OC(C)C(O)C(O)C1OC (stereo not shown) [Compound 53, 20-DH-20-O-Phenylmacrocin]
MIC ([1]; Streptococcus pyogenes C203, agar dilution): 4 µg/mL (≈ 4.08 µM) | MIC ([2]; Streptococcus Group D X66, agar dilution): -- (Not active at 128 mcg/ml, the highest level tested) | MIC ([3]; Streptococcus pneumoniae Park I, agar dilution): 32 µg/mL (≈ 32.6 µM) | MIC (Mycoplasma hyopneumoniae; Mycoplasma hyopneumoniae, broth-dilution microtiter): 0.78 µg/mL (≈ 0.796 µM) | MIC (Streptococcus Group 9960): -- (Not active at 128 mcg/ml, the highest level tested) | MIC (Mycoplasma gallisepticum; Mycoplasma gallisepticum, broth-dilution microtiter): < 0.05 µg/mL | MIC ([4]; Pasteurella multocida 60A, avian isolate, broth-dilution microtiter): 12.5 µg/mL (≈ 12.8 µM) | MIC ([5]; Pasteurella hemolytica 22C, broth-dilution microtiter): 25 µg/mL (≈ 25.5 µM) | MIC ([6]; Haemophilus influenzae R252, ampicillin-resistant strain, agar dilution): -- (Not active at 128 mcg/ml, the highest level tested) | MIC (Staphylococcus aureus; broth-dilution microtiter): 0.39 µg/mL (≈ 0.398 µM) | MIC [7]: 25 µg/mL (≈ 25.5 µM) | MIC (Mycoplasma synoviae; Mycoplasma synoviae, broth-dilution microtiter): 3.12 µg/mL (≈ 3.18 µM) | MIC ([8]; Staphylococcus aureus X400, methicillin-resistant strain, agar dilution): 4 µg/mL (≈ 4.08 µM) | MIC ([9]; Staphylococcus epidermidis EPI2, agar dilution): 2 µg/mL (≈ 2.04 µM) | MIC ([10]; Staphylococcus aureus X1.1, agar dilution): 2 µg/mL (≈ 2.04 µM) | MIC ([11]; Staphylococcus aureus S13E, agar dilution): 2 µg/mL (≈ 2.04 µM) | MIC ([12]; Staphylococcus aureus V41, penicillin-resistant strain, agar dilution): 2 µg/mL (≈ 2.04 µM) | MIC ([13]; Staphylococcus epidermidis EPI1, agar dilution): 2 µg/mL (≈ 2.04 µM) | MIC (Streptococcus bovis 80): 6.25 µg/mL (≈ 6.38 µM) | MIC (Mycoplasma hyorhinis; Mycoplasma hyorhinis, broth-dilution microtiter): 50 µg/mL (≈ 51 µM) | MIC ([14]; Haemophilus influenzae Holt, ampicillin-sensitive strain, agar dilution): -- (Not active at 128 mcg/ml, the highest level tested)

CCC1OC(=O)CC(O)C(C)C(OC2OC(C)C(OC3CC(C)(O)C(O)C(C)O3)C(N(C)C)C2O)C(CCOc2cccc(N(C)C)c2)CC(C)C(=O)C=CC(C)=CC1COC1OC(C)C(O)C(OC)C1OC (stereo not shown) [Compound 16, 20-DH-20-O-[m-(N,N-Dimethylamino)phenyl]tylosin]
MIC ([1]; Streptococcus pyogenes C203, agar dilution, read-out: MIC): 1 µg/mL (≈ 0.964 µM) | MIC [2, 16]: 64 µg/mL (≈ 61.7 µM) | MIC ([3]; Streptococcus pneumoniae Park I, agar dilution, read-out: MIC): 8 µg/mL (≈ 7.71 µM) | MIC (Mycoplasma hyopneumoniae; [17]): > 25 µg/mL | MIC (Streptococcus Group 9960; GROUP9960, read-out: MIC): > 128 µg/mL | MIC (Mycoplasma gallisepticum; [18]): 1.56 µg/mL (≈ 1.5 µM) | MIC [4, 19]: > 50 µg/mL | MIC [5, 20]: > 50 µg/mL | MIC [6, 21]: > 128 µg/mL | MIC (Staphylococcus aureus; broth-dilution microtiter, read-out: MIC): 1.56 µg/mL (≈ 1.5 µM) | MIC ([7]; read-out: MIC): > 50 µg/mL | MIC (Mycoplasma synoviae; [22]): 6.25 µg/mL (≈ 6.03 µM) | MIC [8, 23]: 2 µg/mL (≈ 1.93 µM) | MIC [9, 24]: 1 µg/mL (≈ 0.964 µM) | MIC ([10]; Staphylococcus aureus, X1.1): 1 µg/mL (≈ 0.964 µM) | MIC ([11]; Staphylococcus aureus, S13E): 1 µg/mL (≈ 0.964 µM) | MIC ([12]; Staphylococcus aureus, V41): 1 µg/mL (≈ 0.964 µM) | MIC [13, 25]: 1 µg/mL (≈ 0.964 µM) | MIC (Streptococcus bovis 80; [26]): 50 µg/mL (≈ 48.2 µM) | MIC (Mycoplasma hyorhinis; Mycoplasma): 50 µg/mL (≈ 48.2 µM) | MIC ([14]; Haemophilus influenzae): 128 µg/mL (≈ 123 µM)

CCC1OC(=O)CC(O)C(C)C(OC2OC(C)C(OC3CC(C)(O)C(O)C(C)O3)C(N(C)C)C2O)C(CCSc2ccccc2)CC(C)C(=O)C=CC(C)=CC1COC1OC(C)C(O)C(OC)C1OC (stereo not shown) [Compound 6, 20-DH-DO-20-(Phenylthio)tylosin]
MIC ([1]; Streptococcus pyogenes, C203): 4 µg/mL (≈ 3.96 µM) | MIC [2]: > 128 µg/mL | MIC ([3]; Streptococcus pneumoniae): 64 µg/mL (≈ 63.3 µM) | MIC (Mycoplasma hyopneumoniae; [17]): > 25 µg/mL | MIC (Streptococcus Group 9960; GROUP9960, read-out: MIC): > 128 µg/mL | MIC (Mycoplasma gallisepticum; [18]): 0.78 µg/mL (≈ 0.772 µM) | MIC [4, 19]: > 50 µg/mL | MIC [5, 20]: > 50 µg/mL | MIC [6, 21]: > 128 µg/mL | MIC (Staphylococcus aureus): 3.12 µg/mL (≈ 3.09 µM) | MIC ([7]; read-out: MIC): > 50 µg/mL | MIC (Mycoplasma synoviae; [22]): 12.5 µg/mL (≈ 12.4 µM) | MIC [8, 23]: 2 µg/mL (≈ 1.98 µM) | MIC [9, 24]: 1 µg/mL (≈ 0.99 µM) | MIC ([10]; Staphylococcus aureus, X1.1): 1 µg/mL (≈ 0.99 µM) | MIC ([11]; Staphylococcus aureus, S13E): 1 µg/mL (≈ 0.99 µM) | MIC ([12]; Staphylococcus aureus, V41): 1 µg/mL (≈ 0.99 µM) | MIC ([13]; Staphylococcus epidermidis EPI1, agar dilution, read-out: MIC): 2 µg/mL (≈ 1.98 µM) | MIC (Streptococcus bovis 80; [26]): > 50 µg/mL | MIC (Mycoplasma hyorhinis; Mycoplasma hyorhinis, broth-dilution microtiter, read-out: MIC): > 50 µg/mL | MIC ([14]; Haemophilus influenzae Holt, ampicillin-sensitive strain, read-out: MIC): > 128 µg/mL

CCC1OC(=O)CC(O)C(C)C(OC2OC(C)C(O)C(N(C)C)C2O)C(CC2OCCO2)CC(C)C(=O)C=CC(C)=CC1COC1OC(C)C(O)C(OC)C1OC (stereo not shown) [Compound 74]
MIC [2, 16]: 8 µg/mL (≈ 9.8 µM) | MIC ([3]; Streptococcus pneumoniae): 0.25 µg/mL (≈ 0.306 µM) | MIC (Mycoplasma hyopneumoniae; Mesomycoplasma hyopneumoniae): 1.56 µg/mL (≈ 1.91 µM) | MIC (Streptococcus Group 9960; GROUP9960, read-out: MIC): 8 µg/mL (≈ 9.8 µM) | MIC (Mycoplasma gallisepticum; Mycoplasmoides gallisepticum): 3.12 µg/mL (≈ 3.82 µM) | MIC ([4]; Pasteurella multocida, 60A): 50 µg/mL (≈ 61.3 µM) | MIC ([5]; Pasteurella, 22C): 50 µg/mL (≈ 61.3 µM) | MIC ([6]; Haemophilus influenzae, R252): 32 µg/mL (≈ 39.2 µM) | MIC (Staphylococcus aureus): 3.12 µg/mL (≈ 3.82 µM) | MIC ([7]; read-out: MIC): 25 µg/mL (≈ 30.6 µM) | MIC (Mycoplasma synoviae; Mycoplasmopsis synoviae): 6.25 µg/mL (≈ 7.66 µM) | MIC ([8]; Staphylococcus aureus, X400): 2 µg/mL (≈ 2.45 µM) | MIC [9, 24]: 0.25 µg/mL (≈ 0.306 µM) | MIC ([10]; Staphylococcus aureus, X1.1): 0.5 µg/mL (≈ 0.613 µM) | MIC ([11]; Staphylococcus aureus, S13E): 0.5 µg/mL (≈ 0.613 µM) | ED50 ([15]; C203, sc, subcutaneous, read-out: ED50, Subcutaneous): 3.3 mg/kg | ED50 ([15]; C203, oral, read-out: ED50, Oral): > 25 mg/kg | MIC ([12]; Staphylococcus aureus, V41): 1 µg/mL (≈ 1.23 µM) | MIC [13, 25]: 0.5 µg/mL (≈ 0.613 µM) | MIC (Streptococcus bovis 80; [26]): 6.25 µg/mL (≈ 7.66 µM) | MIC (Mycoplasma hyorhinis; Mycoplasma): 50 µg/mL (≈ 61.3 µM) | MIC ([14]; Haemophilus influenzae): 32 µg/mL (≈ 39.2 µM)
